Measurements as given in publication PMC10548512 (Chemical Science, 2023).

How the values were obtained:
[1] = tested on: H1N1pdm09 virus (A/Netherlands/602/2009); details: for IC50: 1 h
H1 ectodomain = details: pH 7.5

Compound	Infection inhibition in single-concentration screen [1]	Plateau of infection inhibition in dose-response [1]	IC50 [1] [nM]	Competition with fluorescein-labelled S5 for binding to H1 protein (H1 ectodomain)
CC[C@H](C)[C@@H]1NC(=O)[C@H](CO)NC(=O)CNC(=O)CNC(=O)[C@H](CC(=O)O)NC(=O)[C@@H]2CCCN2C(=O)[C@H](Cc2c[nH]c3ccccc23)NC(=O)[C@H](CC(N)=O)NC(=O)[C@H](Cc2ccccc2)NC(=O)[C@H](C(C)C)NC(=O)[C@H](Cc2ccccc2)NC(=O)[C@H](CC(C)C)NC(=O)[C@@H]2CSC(=N2)c2cc(ccn2)C[C@@H](C(=O)NCC(N)=O)NC(=O)[C@H](CCCCN)NC(=O)[C@H](CC(N)=O)NC(=O)[C@H]([C@@H](C)O)NC1=O [M5]	clear infection inhibition	plateau at less than full inhibition	40.3	compete
CC[C@H](C)[C@@H]1NC(=O)CNC(=O)[C@H](CC(N)=O)NC(=O)[C@@H]2CCCN2C(=O)[C@H](C(C)C)NC(=O)[C@H](Cc2ccccc2)NC(=O)[C@H](Cc2ccc(O)cc2)NC(=O)[C@@H]2CCCN2C(=O)[C@H](Cc2ccccc2)NC(=O)[C@H](Cc2ccc(O)cc2)NC(=O)[C@H](CC(C)C)NC(=O)[C@@H]2CSC(=N2)c2cc(ccn2)C[C@@H](C(=O)NCC(N)=O)NC(=O)[C@H](CCC(=O)O)NC(=O)[C@H](CC(C)C)NC(=O)[C@H]([C@@H](C)CC)NC(=O)[C@H](CC(N)=O)NC1=O [M7]	clear infection inhibition	plateau at less than full inhibition	10.8	compete
